Positions of bridges follow the written chain, without caps; N, C: chain ends. Non-standard residues stand in square brackets, D forms with d. Residues, ends and D or L forms follow the SMILES beside them. No end group written: not given here.
Tested on: LPS-induced influx of neutrophils into the lung
Test: not given
Conditions: Bhavsar et al. 2008a, 2008b; cited from earlier work

Molecule	LPS-induced influx of neutrophils into the lung
CC(C)C[C@H](NP(=O)(O)O[C@@H]1O[C@@H](C)[C@H](O)[C@@H](O)[C@H]1O)C(=O)N[C@@H](Cc1c[nH]c2ccccc12)C(=O)O [phosphoramidon]	markedly reduces

Tested on: BALF neutrophils in female Syrian hamsters
Test: Animal model of smoking related acute lung injury (ET-1 plus cigarette smoke, BALF neutrophils)
Assay type: in vivo, hamster
Conditions: ET-1 and room air
Procedure: Animal models of smoking related acute lung injury. The Animal Care and Utilization Committee of the College of Pharmacy and Allied Health Professions, St. John's University approved all experimental protocols, and the research was conducted according to the requirements of NIH Guide for the Care and Use of Laboratory Animals (revised 1996).
Female Syrian hamsters, weighing approximately 100 g each, were divided into two groups as follows: Group 1 was treated IP with: 1) 500 μg of HJP272 in 0.5 mL Na2CO3 and 2) 5 μg ET-1 in 0.25 mL PBS 60 minutes later, followed immediately by exposure to cigarette smoke for two hours. This regimen was continued for three days.
Group 2 was treated IP with: 1) 0.5 mL Na2CO3 and 2) […] ET-1 in 0.25 mL PBS 60 minutes later, followed immediately by exposure to cigarette smoke for three consecutive days as per Group 1. The animals were placed in a 70×48×38 cm chamber and passively exposed to cigarette smoke produced by a TE-10 smoking machine (Teague Enterprises, Davis, Calif.) that simultaneously burned two filtered research-grade cigarettes (type 2R4F, University of Kentucky). Smoke from both the filtered and burning ends of the cigarette was collected, and then mixed together with air in a separate chamber, thus simulating second-hand smoke exposure. Each cigarette was puffed once per minute for two seconds at a flow rate of 1.05 LPM, yielding 35 mL of smoke. This cycle was repeated nine times before ejecting the cigarette and loading a new one. Proper flow rate was maintained by a vacuum pump that established negative pressure at the exhaust port. Total smoke particulates averaged 87 mg per cubic meter.
All animals were sacrificed 24 hours after completing the smoke exposure regimen to maximize the neutrophil population in the lung, and the percentage of BALF neutrophils was measured (van der Vaart et al. 2004)

Molecule	percentage of BALF neutrophils [%]
Endothelin-1 (CSCSSLMDKECVYFCHLDIIW; disulfide 1-15, 3-11; ends not checked; UniProt P05305 53-73, looked up) [ET-1, reference compound]	1

Same assay, conditions: ET-1 prior to cigarette smoke; smoke-only control 18%

Molecule	percentage of BALF neutrophils [%]
Endothelin-1 (CSCSSLMDKECVYFCHLDIIW; disulfide 1-15, 3-11; ends not checked; UniProt P05305 53-73, looked up) [ET-1, reference compound]	46

Tested on: not given
Test: not given
Conditions: not given

melting point [°C]	Molecule
232 to 234	CCOC(=O)c1cccc(Cc2c(C(=O)OCC)n(Cc3cc4c(cc3CC)OCO4)c3ccc(O)cc3c2=O)c1 [Product 1a, Ethyl 3-(3-(ethoxycarbonyl)benzyl)-1-((6-ethylbenzo[d][1,3]dioxol-5-yl)methyl)-6-hydroxy-4-oxo-1,4-dihydroquinoline-2-carboxylate]
124 to 126	CCOC(=O)c1cccc(Cc2c(C(=O)OCC)n(Cc3cc4c(cc3CC)OCO4)c3ccc(OCC)cc3c2=O)c1 [Product 1b, Ethyl 6-ethoxy-3-(3-(ethoxycarbonyl)benzyl)-1-((6-ethylbenzo[d][1,3]dioxol-5-yl)methyl)-4-oxo-1,4-dihydroquinoline-2-carboxylate]
134 to 135	CCCOc1ccc2c(c1)c(=O)c(Cc1cccc(C(=O)OCC)c1)c(C(=O)OCC)n2Cc1cc2c(cc1CC)OCO2 [Product 1c, Ethyl 3-(3-(ethoxycarbonyl)benzyl)-1-((6-ethylbenzo[d][1,3]dioxol-5-yl)methyl)-4-oxo-6-propoxy-1,4-dihydroquinoline-2-carboxylate]
124 to 126	CCOC(=O)c1cccc(Cc2c(C(=O)OCC)n(Cc3cc4c(cc3CC)OCO4)c3ccc(OC(C)C)cc3c2=O)c1 [Product 1d, Ethyl 3-(3-(ethoxycarbonyl)benzyl)-1-((6-ethylbenzo[d][1,3]dioxol-5-yl)methyl)-6-isopropoxy-4-oxo-1,4-dihydroquinoline-2-carboxylate]
128 to 131	C=CCOc1ccc2c(c1)c(=O)c(Cc1cccc(C(=O)OCC)c1)c(C(=O)OCC)n2Cc1cc2c(cc1CC)OCO2 [Product 1e, Ethyl 6-(allyloxy)-3-(3-(ethoxycarbonyl)benzyl)-1-((6-ethylbenzo[d][1,3]dioxol-5-yl)methyl)-4-oxo-1,4-dihydroquinoline-2-carboxylate]
98 to 99	CCCCCOc1ccc2c(c1)c(=O)c(Cc1cccc(C(=O)OCC)c1)c(C(=O)OCC)n2Cc1cc2c(cc1CC)OCO2 [Product 1k, Ethyl 3-(3-(ethoxycarbonyl)benzyl)-1-((6-ethylbenzo[d][1,3]dioxol-5-yl)methyl)-4-oxo-6-(pentyloxy)-1,4-dihydroquinoline-2-carboxylate]
129 to 132	CCOC(=O)c1cccc(Cc2c(C(=O)OCC)n(Cc3cc4c(cc3CC)OCO4)c3ccc(OCCCO)cc3c2=O)c1 [Product 1l, Ethyl 3-(3-(ethoxycarbonyl)benzyl)-1-((6-ethylbenzo[d][1,3]dioxol-5-yl)methyl)-6-(3-hydroxypropoxy)-4-oxo-1,4-dihydroquinoline-2-carboxylate]
213 to 215	CCOc1ccc2c(c1)c(=O)c(Cc1cccc(C(=O)O)c1)c(C(=O)O)n2Cc1cc2c(cc1CC)OCO2 [Product 1o, 3-(3-carboxybenzyl)-6-ethoxy-1-((6-ethylbenzo[d][1,3]dioxol-5-yl)methyl)-4-oxo-1,4-dihydroquinoline-2-carboxylic acid]
162 to 163	CCCOc1ccc2c(c1)c(=O)c(Cc1cccc(C(=O)O)c1)c(C(=O)O)n2Cc1cc2c(cc1CC)OCO2 [Product 1p, 3-(3-carboxybenzyl)-1-((6-ethylbenzo[d][1,3]dioxol-5-yl)methyl)-4-oxo-6-propoxy-1,4-dihydroquinoline-2-carboxylic acid]
199 to 200	CCc1cc2c(cc1Cn1c(C(=O)O)c(Cc3cccc(C(=O)O)c3)c(=O)c3cc(OC(C)C)ccc31)OCO2 [Product 1q, 3-(3-carboxybenzyl)-1-((6-ethylbenzo[d][1,3]dioxol-5-yl)methyl)-6-isopropoxy-4-oxo-1,4-dihydroquinoline-2-carboxylic acid]
165 to 166	C=CCOc1ccc2c(c1)c(=O)c(Cc1cccc(C(=O)O)c1)c(C(=O)O)n2Cc1cc2c(cc1CC)OCO2 [Product 1r, 6-(allyloxy)-3-(3-carboxybenzyl)-1-((6-ethylbenzo[d][1,3]dioxol-5-yl)methyl)-4-oxo-1,4-dihydroquinoline-2-carboxylic acid]
229 to 231	CCc1cc2c(cc1Cn1c(C(=O)O)c(Cc3cccc(C(=O)O)c3)c(=O)c3cc(OCC4CC4)ccc31)OCO2 [Product 1w, 3-(3-carboxybenzyl)-6-(cyclopropylmethoxy)-1-((6-ethylbenzo[d][1,3]dioxol-5-yl)methyl)-4-oxo-1,4-dihydroquinoline-2-carboxylic acid]
152 to 155	CCCCCOc1ccc2c(c1)c(=O)c(Cc1cccc(C(=O)O)c1)c(C(=O)O)n2Cc1cc2c(cc1CC)OCO2 [Product 1x, 3-(3-carboxybenzyl)-1-((6-ethylbenzo[d][1,3]dioxol-5-yl)methyl)-4-oxo-6-(pentyloxy)-1,4-dihydroquinoline-2-carboxylic acid]
192 to 194	CCc1cc2c(cc1Cn1c(C(=O)O)c(Cc3cccc(C(=O)O)c3)c(=O)c3cc(OCCCO)ccc31)OCO2 [Product 1y, 3-(3-carboxybenzyl)-1-((6-ethylbenzo[d][1,3]dioxol-5-yl)methyl)-6-(3-hydroxypropoxy)-4-oxo-1,4-dihydroquinoline-2-carboxylic acid]

Molecule	melting point [°C]
CCCCOc1ccc2c(c1)c(=O)c(Cc1cccc(C(=O)OCC)c1)c(C(=O)OCC)n2Cc1cc2c(cc1CC)OCO2 [Product 1g, Ethyl 6-butoxy-3-(3-(ethoxycarbonyl)benzyl)-1-((6-ethylbenzo[d][1,3]dioxol-5-yl)methyl)-4-oxo-1,4-dihydroquinoline-2-carboxylate]	147 to 150
CCOC(=O)c1cccc(Cc2c(C(=O)OCC)n(Cc3cc4c(cc3CC)OCO4)c3ccc(OCC(C)C)cc3c2=O)c1 [Product 1h, Ethyl 3-(3-(ethoxycarbonyl)benzyl)-1-((6-ethylbenzo[d][1,3]dioxol-5-yl)methyl)-6-isobutoxy-4-oxo-1,4-dihydroquinoline-2-carboxylate]	129 to 132
CCOC(=O)c1cccc(Cc2c(C(=O)OCC)n(Cc3cc4c(cc3CC)OCO4)c3ccc(OC(C)CC)cc3c2=O)c1 (stereo not drawn) [Product 1i, Ethyl 6-sec-butoxy-3-(3-(ethoxycarbonyl)benzyl)-1-((6-ethylbenzo[d][1,3]dioxol-5-yl)methyl)-4-oxo-1,4-dihydroquinoline-2-carboxylate]	129 to 132
CCCCOc1ccc2c(c1)c(=O)c(Cc1cccc(C(=O)O)c1)c(C(=O)O)n2Cc1cc2c(cc1CC)OCO2 [Product 1t, 6-butoxy-3-(3-carboxybenzyl)-1-((6-ethylbenzo[d][1,3]dioxol-5-yl)methyl)-4-oxo-1,4-dihydroquinoline-2-carboxylic acid]	161 to 162
CCc1cc2c(cc1Cn1c(C(=O)O)c(Cc3cccc(C(=O)O)c3)c(=O)c3cc(OCC(C)C)ccc31)OCO2 [Product 1u, 3-(3-carboxybenzyl)-1-((6-ethylbenzo[d][1,3]dioxol-5-yl)methyl)-6-isobutoxy-4-oxo-1,4-dihydroquinolin-2-carboxylic]	185 to 186

Tested on: LPS-stimulated pregnant mice
Test: not given
Conditions: Koscica et al. 2004, Wang et al. 2008; cited from earlier work

Molecule	incidence of premature delivery
CC(C)C[C@@H]1NC(=O)[C@@H](C(C)C)NC(=O)[C@@H]2CCCN2C(=O)[C@@H](CC(=O)O)NC(=O)[C@@H](Cc2c[nH]c3ccccc23)NC1=O [BQ-123] (cyclo(L[dW][dD]P[dV]))	decreased incidence of premature delivery
CC(C)C[C@H](NP(=O)(O)O[C@@H]1O[C@@H](C)[C@H](O)[C@@H](O)[C@H]1O)C(=O)N[C@@H](Cc1c[nH]c2ccccc12)C(=O)O [phosphoramidon]	decreases the incidence of premature delivery
